Data reported in ChEMBL document CHEMBL2169819, “Synthesis and biological evaluation of 2-amino-3-(4-chlorobenzoyl)-4-[(4-arylpiperazin-1-yl)methyl]-5-substituted-thiophenes. effect of the 5-modification on allosteric enhancer activity at the A1 adenosine receptor” (J Med Chem, 2012).

How the values were obtained:
[1] = target: Adenosine receptor A2a (Homo sapiens) (UniProt P29274); assay: Displacement of [3H]ZM241385 from human adenosine A2A receptor expressed in CHO cells at 10 uM after 120 mins by scintillation counting; format: cell-based
[2] = target: T1, Adenosine receptor A1 (Homo sapiens) (UniProt P30542); assay: Allosteric enhancing activity at human adenosine A1 receptor expressed in CHO cells assessed as inhibition of forskolin-stimulated cAMP accumulation at 100 nM incubated for 10 mins prior to forskolin-stimulation measured after 5 mins by competition protein binding assay in presence of 2-chloro-N6-cyclopentyladenosine; format: functional, cell-based
T1 sequence (whole entry): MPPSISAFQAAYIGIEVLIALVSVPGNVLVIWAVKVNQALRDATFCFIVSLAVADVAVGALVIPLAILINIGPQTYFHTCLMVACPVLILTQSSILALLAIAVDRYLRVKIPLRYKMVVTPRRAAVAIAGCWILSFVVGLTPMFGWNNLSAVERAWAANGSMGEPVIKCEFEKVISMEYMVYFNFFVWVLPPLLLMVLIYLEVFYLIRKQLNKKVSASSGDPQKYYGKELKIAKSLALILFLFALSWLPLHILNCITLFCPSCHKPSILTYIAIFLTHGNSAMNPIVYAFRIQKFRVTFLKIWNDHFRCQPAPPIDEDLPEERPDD

[3] = target: T1, Adenosine receptor A1 (Homo sapiens); assay: Allosteric enhancing activity at human adenosine A1 receptor expressed in CHO cells assessed as increase in [3H]-2-chloro-N6-cyclopentyladenosine Bmax at 10 uM after 90 mins relative to control; format: cell-based
[4] = target: T2, Adenosine receptor A3 (Homo sapiens) (UniProt P0DMS8); assay: Displacement of [3H]MRE-3008-F20 from human adenosine A3 receptor expressed in CHO cells at 10 uM after 120 mins by scintillation counting; format: cell-based
T2 sequence (whole entry): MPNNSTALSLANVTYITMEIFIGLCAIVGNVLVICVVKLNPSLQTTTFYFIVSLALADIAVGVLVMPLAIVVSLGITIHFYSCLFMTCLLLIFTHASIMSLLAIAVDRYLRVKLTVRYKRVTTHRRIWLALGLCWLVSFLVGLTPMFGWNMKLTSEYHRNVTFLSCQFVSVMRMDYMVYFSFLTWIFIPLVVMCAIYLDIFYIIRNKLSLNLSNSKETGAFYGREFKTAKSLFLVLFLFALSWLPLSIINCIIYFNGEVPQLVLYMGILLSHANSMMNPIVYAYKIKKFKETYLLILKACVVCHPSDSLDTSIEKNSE

[5] = target: T1, Adenosine receptor A1 (Homo sapiens); assay: Allosteric enhancing activity at human adenosine A1 receptor expressed in CHO cells assessed as inhibition of forskolin-stimulated cAMP accumulation at 10 uM incubated for 10 mins prior to forskolin-stimulation measured after 5 mins by competition protein binding assay; format: functional, cell-based
[6] = target: T1, Adenosine receptor A1 (Homo sapiens); assay: Allosteric enhancing activity at human adenosine A1 receptor expressed in CHO cells assessed as increase in CCPA-induced [3H]DPCPX displacement at 10 uM after 90 mins relative to control; format: cell-based
[7] = target: T1, Adenosine receptor A1 (Homo sapiens); assay: Displacement of [3H]DPCPX from human adenosine A1 receptor expressed in CHO cells at 10 uM after 120 mins by scintillation counting; format: cell-based

Sequence of Adenosine receptor A2a (Homo sapiens) (P29274 whole entry): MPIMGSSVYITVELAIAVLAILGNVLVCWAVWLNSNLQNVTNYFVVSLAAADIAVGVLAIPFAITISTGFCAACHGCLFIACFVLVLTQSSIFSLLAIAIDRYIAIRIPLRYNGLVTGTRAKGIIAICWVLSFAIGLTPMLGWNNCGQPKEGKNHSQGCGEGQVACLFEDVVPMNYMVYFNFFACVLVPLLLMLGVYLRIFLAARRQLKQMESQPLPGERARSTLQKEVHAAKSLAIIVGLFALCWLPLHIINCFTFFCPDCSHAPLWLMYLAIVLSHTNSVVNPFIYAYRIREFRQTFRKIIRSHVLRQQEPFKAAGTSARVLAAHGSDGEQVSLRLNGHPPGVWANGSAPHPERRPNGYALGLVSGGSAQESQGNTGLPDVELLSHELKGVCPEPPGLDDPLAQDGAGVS

Compound | inhibition [1] [%] | inhibition [2] [%] | fold change (FC) [3] | inhibition [4] [%] | inhibition [5] [%] | Ratio Ki [6] | inhibition [7] [%]
Nc1sc(-c2ccc(Cl)cc2)c(CN2CCN(c3cccc(C(F)(F)F)c3)CC2)c1C(=O)c1ccc(Cl)cc1 | < 12 | 78 | 11.8 | < 12 | 81 | 13 | < 12
Cc1sc(N)c(C(=O)c2ccc(Cl)cc2)c1CN1CCN(c2ccc(Cl)c(C(F)(F)F)c2)CC1 | < 12 | 48 | 5.1 | < 12 | 52 | 4.6 | < 12
Nc1sc(-c2ccc(F)cc2)c(CN2CCN(c3ccc(F)cc3)CC2)c1C(=O)c1ccc(Cl)cc1 | < 12 | 77 | 11.7 | < 12 | 82 | 9.5 | < 12
Nc1sc(-c2ccc(Cl)cc2)c(CN2CCN(c3ccc(OC(F)(F)F)cc3)CC2)c1C(=O)c1ccc(Cl)cc1 | < 12 | 72 | 10.7 | < 12 | 78 | 8.9 | < 12
CCc1sc(N)c(C(=O)c2ccc(Cl)cc2)c1CN1CCN(c2ccccc2)CC1 | < 12 | 50 | 5.5 | < 12 | 57 | 4.9 | < 12
Nc1sc(-c2ccccc2)c(CN2CCN(c3ccccc3)CC2)c1C(=O)c1ccc(Cl)cc1 | < 12 | 74 | 11.5 | < 12 | 79 | 8.3 | < 12
Nc1sc(-c2ccc(Cl)cc2)c(CN2CCN(c3ccc(Cl)c(Cl)c3)CC2)c1C(=O)c1ccc(Cl)cc1 | < 12 | 67 | 8.3 | < 12 | 69 | 7.7 | < 12
Nc1sc(-c2ccccc2)c(CN2CCN(c3ccc(OC(F)(F)F)cc3)CC2)c1C(=O)c1ccc(Cl)cc1 | < 12 | 69 | 9.4 | < 12 | 67 | 8.4 | < 12
Nc1sc(-c2ccccc2)c(CN2CCN(c3ccc(C(F)(F)F)cc3)CC2)c1C(=O)c1ccc(Cl)cc1 | < 12 | 73 | 10.7 | < 12 | 72 | 8.9 | < 12
Nc1sc(-c2ccccc2)c(CN2CCN(c3cccc(C(F)(F)F)c3)CC2)c1C(=O)c1ccc(Cl)cc1 | < 12 | 60 | 7.5 | < 12 | 63 | 7.1 | < 12

The remaining lines, values ahead:

inhibition [1] [%] | inhibition [2] [%] | fold change (FC) [3] | inhibition [4] [%] | inhibition [5] [%] | Ratio Ki [6] | inhibition [7] [%] | Compound
< 12 | 52 | 6.2 | < 12 | 51 | 5.7 | < 12 | Cc1sc(N)c(C(=O)c2ccc(Cl)cc2)c1CN1CCN(c2cccc(C(F)(F)F)c2)CC1
< 12 | 53 | 5.9 | < 12 | 50 | 5.2 | < 12 | Cc1sc(N)c(C(=O)c2ccc(Cl)cc2)c1CN1CCN(c2ccc(F)cc2)CC1
< 12 | 46 | 4.9 | < 12 | 49 | 4.5 | < 12 | Cc1sc(N)c(C(=O)c2ccc(Cl)cc2)c1CN1CCN(c2ccc(Br)cc2)CC1
< 12 | 13 | 1.3 | < 12 | 9 | 1.1 | < 12 | Cc1sc(N)c(C(=O)c2ccc(Cl)cc2)c1CN1CCN(c2ccc([N+](=O)[O-])cc2)CC1
< 12 | 55 | 6.7 | < 12 | 63 | 3.8 | < 12 | CCc1sc(N)c(C(=O)c2ccc(Cl)cc2)c1CN1CCN(c2ccc(F)cc2)CC1
< 12 | 40 | 4.7 | < 12 | 44 | 4.2 | < 12 | Cc1sc(N)c(C(=O)c2ccc(Cl)cc2)c1CN1CCN(c2ccc(Cl)cc2)CC1
< 12 | 71 | 11.1 | < 12 | 77 | 9.4 | < 12 | Nc1sc(-c2ccccc2)c(CN2CCN(c3ccc(F)cc3)CC2)c1C(=O)c1ccc(Cl)cc1
